Assay results reported in US20050159345A1 (Boehringer Ingelheim International GmbH, priority 2002, published 2005).

Tests used:
[1] = system: HCV replicon 1b; test: Cell-based HCV 1b RNA replicon assay; settings: Hepatitis C virus, 72 h; Huh-7-derived replicon cells, 3 day incubation, HCV RNA by RT-PCR
Description: (§1) These cells were used to establish a sensitive HCV RNA replication cell-based assay for testing candidate test compounds.
(§2) Huh7 cells that stably maintain a subgenomic HCV replicon were established as previously described (Lohman et al. 1999; WO 02/052015). The cells were seeded into a 96 well cell culture cluster at 1×10^4 cells per well in DMEM complemented with 10% FBS, PenStrep (Life Technologies) and […] Geneticin. Cells were incubated in a 5% CO2 incubator at 37° C. until addition of various concentrations of the test compound.
(§3) The test compound was prepared for use in the assay as follows. The test compound in 100% DMSO was added diluted in assay Medium for a final DMSO concentration of 0.5% and the solution was sonicated for 15 min and filtered through a […] Millipore Filter Unit. Serial dilutions of the test compounds were prepared using Assay Medium (containing 0.5% DMSO).
(§4) Cell culture medium was aspirated from the 96-well plate containing the cells and the appropriate dilution of test compound in assay medium was transferred to independent wells of the cell culture plate which was incubated at 37° with 5% CO2.
(§5) Following a 3 day-incubation period, the cells were washed with PBS and total cellular RNA was extracted with the RNeasy Mini Kit® and Qiashredder® from Qiagen. RNA from each well was eluted in 50 μL of H2O. RNA was quantified by optical density at 260 nm on the Cary 1E® UV-Visible spectrophotometer. The HCV RNA replicon copy number was evaluated by real-time RT-PCR with the Abi Prism® 7700 Sequence Detection System. The TAQMAN E® RT-PCR kit provides a system for the detection and analysis of RNA. Direct detection of the reverse transcription polymerase chain reaction (RT-PCR) product with no downstream processing was accomplished by monitoring the increase in fluorescence of a dye-labeled DNA probe. The nucleotide sequence of both primers and probe was located in the 5′ region of the HCV genome. The replicon copy number was then evaluated using a standard curve made with known amounts of replicon copy (supplemented with 50 ng of wild type Huh-7 RNA) assayed in the same reaction mix. The following thermal cycle parameters were used for the RT-PCR reaction on the ABI Prism® 7700 Sequence Detection System. Conditions were optimized for HCV detection. Quantification is based on the threshold cycle, where the amplification plot crosses a defined fluorescence threshold. Comparison of the threshold cycles provides a highly sensitive measure of relative template concentration in different samples. Monitoring during early cycles, when PCR fidelity is at its highest, provides precise data for accurate quantification. The relative template concentration can be converted to real numbers by using the standard curve of HCV with known number of copy.
(§6) The level of inhibition (% inhibition) of each well containing test compound was calculated with the following equation (CN═HCV Replicon copy number): [formula]
(§7) The calculated % inhibition values were then used to determine EC50, slope factor (n) and maximum inhibition (Imax) by the non-linear regression routine NLIN procedure of SAS using the following equation: [formula]

[2] = system: HCV replicon 1a; test: Cell-based HCV 1a RNA replicon assay; settings: Hepatitis C virus, 72 h; Huh-7-derived replicon cells, 3 day incubation, HCV RNA by RT-PCR
Description: as §1, §2, §3, §4, §5, §6, §7

## COc1ccc2c(O[C@@H]3C[C@H]4C(=O)N[C@]5(C(=O)NS(C)(=O)=O)CC5/C=C\CCCCC[C@H](NC(=O)OC5CCCC5)C(=O)N4C3)cc(-c3csc(NC(C)C)n3)nc2c1 (stereo partly drawn) [VII]
[1]
  EC50: 3.3 nM
[2]
  EC50: 3.2 nM

## COc1ccc2c(O[C@@H]3C[C@H]4C(=O)N[C@]5(C(=O)NS(=O)(=O)c6ccccc6)CC5/C=C\CCCCC[C@H](NC(=O)OC5CCCC5)C(=O)N4C3)cc(-c3csc(NC(C)C)n3)nc2c1 (stereo partly drawn) [VI]
[1]
  EC50: 3 nM
[2]
  EC50: 2.2 nM

## COc1ccc2c(O[C@@H]3C[C@H]4C(=O)N[C@]5(C(=O)NS(=O)(=O)C6CC6)CC5/C=C\CCCCC[C@H](NC(=O)OC5CCCC5)C(=O)N4C3)cc(-c3csc(NC(C)C)n3)nc2c1 (stereo partly drawn)
[1]
  EC50: 1.1 nM
[2]
  EC50: 0.7 nM
